Measured values published in Sander's compilation of Henry's law constants.

Experiments:
[1] = Henry solubility constant Hcp at 310 K (mol/(m3 Pa))
[2] = Henry solubility constant Hcp at 298.15 K (mol/(m3 Pa))
[3] = Henry solubility constant Hcp at 296 K (mol/(m3 Pa))
[4] = Henry solubility constant Hcp at 293 K (mol/(m3 Pa))
[5] = Henry solubility constant Hcp at 303 K (mol/(m3 Pa))
[6] = Henry solubility constant Hcp at 295 K (mol/(m3 Pa)); conditions: reference: de Wolf and Lieder (1998)
[7] = reference: McIntosh and Heffron (2000)
[8] = reference: Bissonette et al. (1990)
[9] = reference: Robbins et al. (1993)
[10] = reference: Turner et al. (1996)
[11] = reference: Wasik and Tsang (1970)
[12] = reference: Yurteri et al. (1987)
[13] = reference: Hartkopf and Karger (1973)

Question: Which results are given for `Cc1ccccc1C` [1,2-dimethylbenzene]?
Answer: Henry solubility constant Hcp at 310 K [1, 7]: 0.00096; Henry solubility constant Hcp [2, 8]: 0.0021; Henry solubility constant Hcp ([2]; reference: Li et al. (2008)): 0.0023; Henry solubility constant Hcp [2, 9]: 0.002; Henry solubility constant Hcp ([2]; reference: Sieg et al. (2009)): 0.002; Henry solubility constant Hcp [2, 10]: 0.0014; Henry solubility constant Hcp [2, 11]: 0.0029; Henry solubility constant Hcp at 296 K ([3]; reference: Anderson (1992)): 0.0017; Henry solubility constant Hcp at 293 K [4, 12]: 0.0023

Question: What does the source list for `CCC(=O)CC` [3-pentanone]?
Answer: Henry solubility constant Hcp at 303 K ([5]; reference: Saylor et al. (1938)): 9.7e-05; Henry solubility constant Hcp ([2]; reference: Hovorka et al. (2019)): 0.11; Henry solubility constant Hcp ([2]; reference: Ji and Evans (2007)): 0.16

Question: Which results are given for `CCOC=O` [ethyl methanoate]?
Answer: Henry solubility constant Hcp at 303 K ([5]; reference: Richon et al. (1985)): 0.023; Henry solubility constant Hcp [2, 13]: 0.0019; Henry solubility constant Hcp ([2]; reference: Kutsuna et al. (2005)): 0.034; Henry solubility constant Hcp ([2]; reference: Wittig et al. (2001)): 0.04

Question: With `CCCCC(=O)OCC` [ethyl pentanoate] as the molecule, how does the “Henry solubility constant Hcp at 303 K” value ([5]; reference: Meynier et al. (2003)) read?
Answer: 0.14

Question: Which results are given for `[HH]` [hydrogen]?
Answer: Henry solubility constant Hcp at 310 K ([1]; reference: Longo et al. (1970)): 7.2e-06; Henry solubility constant Hcp at 310 K ([1]; reference: Power and Stegall (1970)): 7.2e-06; Henry solubility constant Hcp at 303 K ([5]; reference: Ruetschi and Amlie (1966)): 7.5e-06; Henry solubility constant Hcp ([2]; reference: Bohr and Bock (1891)): 7.5e-06; Henry solubility constant Hcp ([2]; reference: Braun (1900)): 7.7e-06; Henry solubility constant Hcp ([2]; reference: Bunsen (1855a)): 8.5e-06; Henry solubility constant Hcp ([2]; reference: Crozier and Yamamoto (1974)): 7.7e-06; Henry solubility constant Hcp ([2]; reference: Geffcken (1904)): 7.8e-06; Henry solubility constant Hcp ([2]; reference: Gordon et al. (1977)): 7.7e-06; Henry solubility constant Hcp ([2]; reference: Morrison and Billett (1952)): 7.8e-06; Henry solubility constant Hcp ([2]; reference: Schmidt (1979)): 7.8e-06; Henry solubility constant Hcp ([2]; reference: Timofejew (1890)): 7.8e-06; Henry solubility constant Hcp ([2]; reference: Winkler (1891a)): 7.7e-06

Question: For `[N-]=[N+]=O` [dinitrogen monoxide], which “Henry solubility constant Hcp at 310 K” value ([1]; reference: Bachofen and Farhi (1971)) is on record?
Answer: 0.00019

Question: What about the “Henry solubility constant Hcp at 310 K” value ([1]; reference: Sy and Hasbrouck (1964)) of the same molecule?
Answer: 0.00014

Question: And the “Henry solubility constant Hcp” value ([2]; reference: Carius (1855))?
Answer: 0.00025

Question: What about the “Henry solubility constant Hcp” value ([2]; reference: Gabel and Schultz (1973)) of the same molecule?
Answer: 0.00025

Question: What about the “Henry solubility constant Hcp” value ([2]; reference: Geffcken (1904)) of the same molecule?
Answer: 0.00024

Question: And the “Henry solubility constant Hcp” value ([2]; reference: Joosten and Danckwerts (1972))?
Answer: 0.00024

Question: And the “Henry solubility constant Hcp” value ([2]; reference: Kunerth (1922))?
Answer: 0.00024

Question: What about the “Henry solubility constant Hcp” value ([2]; reference: Orcutt and Seevers (1937a)) of the same molecule?
Answer: 0.00024

Question: What about the “Henry solubility constant Hcp” value ([2]; reference: Roth (1897)) of the same molecule?
Answer: 0.00023

Question: What about the “Henry solubility constant Hcp” value ([2]; reference: Saidman et al. (1966)) of the same molecule?
Answer: 0.00024

Question: What about the “Henry solubility constant Hcp” value ([2]; reference: Siebeck (1909)) of the same molecule?
Answer: 0.00024

Question: What about the “Henry solubility constant Hcp” value ([2]; reference: Weiss and Price (1980)) of the same molecule?
Answer: 0.00024

Question: What about the “Henry solubility constant Hcp at 296 K” value ([3]; reference: Nunn (1958)) of the same molecule?
Answer: 0.00022

Question: With `C=CC(C)(C)O` [2-methyl-3-buten-2-ol] as the molecule, how does the “Henry solubility constant Hcp at 303 K” value ([5]; reference: Iraci et al. (1999)) read?
Answer: 0.64

Question: With `Cc1ccccc1` [methylbenzene] as the molecule, how does the “Henry solubility constant Hcp at 310 K” value [1, 7] read?
Answer: 0.00085

Question: And the “Henry solubility constant Hcp at 295 K” value [6]?
Answer: 0.002

Question: And the “Henry solubility constant Hcp” value ([2]; reference: Allen et al. (1998))?
Answer: 0.0015

Question: And the “Henry solubility constant Hcp” value ([2]; reference: Bakierowska and Trzeszczyński (2003))?
Answer: 0.0017

Question: What about the “Henry solubility constant Hcp” value ([2]; reference: Bierwagen and Keller (2001)) of the same molecule?
Answer: 0.0017

Question: And the “Henry solubility constant Hcp” value [2, 8]?
Answer: 0.0014

Question: And the “Henry solubility constant Hcp” value ([2]; reference: Bobadilla et al. (2003))?
Answer: 0.0021

Question: What about the “Henry solubility constant Hcp” value ([2]; reference: Brown and Wasik (1974)) of the same molecule?
Answer: 0.0016

Question: What about the “Henry solubility constant Hcp” value ([2]; reference: Ervin et al. (1980)) of the same molecule?
Answer: 0.0015

Question: What about the “Henry solubility constant Hcp” value ([2]; reference: Ettre et al. (1993)) of the same molecule?
Answer: 0.0015

Question: What about the “Henry solubility constant Hcp” value ([2]; reference: Garbarini and Lion (1985)) of the same molecule?
Answer: 0.0015

Question: What about the “Henry solubility constant Hcp” value ([2]; reference: Görgényi et al. (2002)) of the same molecule?
Answer: 0.0015

Question: What about the “Henry solubility constant Hcp” value [2, 13] of the same molecule?
Answer: 0.002

Question: And the “Henry solubility constant Hcp” value ([2]; reference: Keeley et al. (1988))?
Answer: 0.0016

Question: And the “Henry solubility constant Hcp” value ([2]; reference: Kish et al. (2013))?
Answer: 0.0015

Question: What about the “Henry solubility constant Hcp” value ([2]; reference: Kutsuna and Kaneyasu (2021)) of the same molecule?
Answer: 0.0015

Question: What about the “Henry solubility constant Hcp” value ([2]; reference: Lau et al. (2010)) of the same molecule?
Answer: 0.0013

Question: And the “Henry solubility constant Hcp” value ([2]; reference: Lee et al. (2013))?
Answer: 0.0017

Question: And the “Henry solubility constant Hcp” value ([2]; reference: Lei et al. (2004))?
Answer: 0.0014

Question: And the “Henry solubility constant Hcp” value ([2]; reference: Li et al. (2008))?
Answer: 0.0015

Question: And the “Henry solubility constant Hcp” value ([2]; reference: Lin and Chou (2006))?
Answer: 0.0015

Question: What about the “Henry solubility constant Hcp” value ([2]; reference: Lodge and Danso (2007)) of the same molecule?
Answer: 0.0014

Question: What about the “Henry solubility constant Hcp” value ([2]; reference: Mackay et al. (1979)) of the same molecule?
Answer: 0.0015

Question: What about the “Henry solubility constant Hcp” value ([2]; reference: Nielsen et al. (1994)) of the same molecule?
Answer: 0.0016

Question: And the “Henry solubility constant Hcp” value ([2]; reference: Park et al. (1997))?
Answer: 0.0013

Question: And the “Henry solubility constant Hcp” value ([2]; reference: Peng and Wan (1997))?
Answer: 0.0017

Question: And the “Henry solubility constant Hcp” value ([2]; reference: Peng and Wan (1998))?
Answer: 0.0021

Question: What about the “Henry solubility constant Hcp” value ([2]; reference: Perlinger et al. (1993)) of the same molecule?
Answer: 0.0015

Question: What about the “Henry solubility constant Hcp” value ([2]; reference: Ramachandran et al. (1996)) of the same molecule?
Answer: 0.0015

Question: What about the “Henry solubility constant Hcp” value [2, 9] of the same molecule?
Answer: 0.0015

Question: What about the “Henry solubility constant Hcp” value ([2]; reference: Sanemasa et al. (1981)) of the same molecule?
Answer: 0.0016

Question: What about the “Henry solubility constant Hcp” value ([2]; reference: Schoene and Steinhanses (1985)) of the same molecule?
Answer: 0.0012

Question: And the “Henry solubility constant Hcp” value ([2]; reference: Sieg et al. (2009))?
Answer: 0.0015

Question: And the “Henry solubility constant Hcp” value ([2]; reference: Tsibul’skii et al. (1979))?
Answer: 0.0015

Question: And the “Henry solubility constant Hcp” value [2, 10]?
Answer: 0.0014

Question: And the “Henry solubility constant Hcp” value ([2]; reference: Vane and Giroux (2000))?
Answer: 0.0019

Question: And the “Henry solubility constant Hcp” value ([2]; reference: Vitenberg et al. (1975))?
Answer: 0.0019

Question: And the “Henry solubility constant Hcp” value ([2]; reference: Warner et al. (1980))?
Answer: 0.0017

Question: What about the “Henry solubility constant Hcp” value [2, 11] of the same molecule?
Answer: 0.0017

Question: What about the “Henry solubility constant Hcp at 296 K” value ([3]; reference: Anderson (1992)) of the same molecule?
Answer: 0.0015

Question: What about the “Henry solubility constant Hcp at 296 K” value ([3]; reference: David et al. (2000)) of the same molecule?
Answer: 0.0015

Question: What about the “Henry solubility constant Hcp at 296 K” value ([3]; reference: Miller and Stuart (2000)) of the same molecule?
Answer: 0.0016

Question: What about the “Henry solubility constant Hcp at 293 K” value ([4]; reference: Yu (1992)) of the same molecule?
Answer: 0.0037

Question: What about the “Henry solubility constant Hcp at 293 K” value [4, 12] of the same molecule?
Answer: 0.0017
